Experiments:
KPC-2 = target: T1, KPC-2 (Klebsiella pneumoniae, UniProt Q9F663); assay: Kinetic parameters of β-lactamase carbamoylation/de-carbamoylation (nitrocefin), KPC-2; format: biochemical; conditions: for Carbamoylation efficacy of β-lactamases by diazabicyclooctanes / De-carbamoylation rate constant k−2 for β-lactamase-diazabicyclooctane adducts: KPC-2, 20° C., nitrocefin 100 μM, MES pH 6.4; for activity against KPC-2 (in words): summary of Tables 1 and 2
T1 construct: fragments of the β-lactamase genes encoding soluble enzymes, i.e. devoid of the signal peptides; 6xHis tag followed by TEV cleavage site ([…]) (N); made in house; host or cells: E. coli BL21 (DE3)
T1 sequence (Q9F663 25-293 limits assumed): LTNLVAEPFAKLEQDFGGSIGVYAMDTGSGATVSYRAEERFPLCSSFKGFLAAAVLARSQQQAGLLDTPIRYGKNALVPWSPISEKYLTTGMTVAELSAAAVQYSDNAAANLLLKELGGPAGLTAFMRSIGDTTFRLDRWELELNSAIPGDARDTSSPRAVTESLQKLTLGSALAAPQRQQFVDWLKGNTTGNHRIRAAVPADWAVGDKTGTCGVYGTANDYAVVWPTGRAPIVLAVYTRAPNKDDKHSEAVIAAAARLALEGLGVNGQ
From the text: (§1) Plasmid and strain construction. For antibiotic susceptibility testing, the R-lactamase genes were cloned into the vector pTRC-99k, which is a derivative of pTRC99a (Pharmacia) obtained by replacing the β-lactamase resistance gene by a kanamycin resistance gene (Km, lacl, pTRC promoter, oriVcolEl; D. Mengin-Lecreulx, unpublished). Recombinant plasmids were introduced by electrotransformation into Escherichia coli Top10. For β-lactamase production, fragments of the β-lactamase genes encoding soluble enzymes, i.e. devoid of the signal peptides, were cloned into the vector pET-TEV generating translational fusions with a vector-encoded N-terminal 6×His Tag followed by a TEV cleavage site ([…]) (1).
(§2) Production and purification of β-lactamases. E. coli BL21 (DE3) harboring recombinant plasmids were grown in brain heart infusion (BHI) broth supplemented with kanamycin (50 μg/ml) at 37° C. under vigorous shaking until the optical density at 600 nm (OD600) reached 0.8. Isopropyl β-D-1-thiogalactopyranoside IPTG (0.5 mM) was added and incubation was continued at 16° C. for 18 h. Bacteria were harvested by centrifugation, re-suspended in 25 mM Tris-HCl (pH 7.5) containing 300 mM NaCl (buffer A) and lysed by sonication. The enzymes were purified from clarified lysates by affinity chromatography (NiNTA agarose, Sigma-Aldrich) and size exclusion chromatography in buffer A (Superdex 200 HL26/60, Amersham Pharmacia Biotech). Protein concentration was determined by the Biorad protein assay using bovine serum albumin as a standard.
(§3) Determination of kinetic parameters. […] Briefly, the initial velocity (vi) was determined by spectrophotometry for various concentrations of β-lactams [S] and a fixed concentration of β-lactamase [E]. The values of vi were plotted as a function of [S]. The kinetic constants Km and kcat were determined by fitting the equation […] to the resulting curve. The molecular extinction coefficient was 14,600 M^−1 cm^−1 at 486 nm for nitrocefin. […] Kinetics constants were deduced from a minimum of 6 progress curves obtained in a minimum of two independent experiments.

[1] = tested on: E. coli Top10 producing CTX-M15; assay: MIC determination by microdilution, E. coli Top10 producing CTX-M15; format: cell-based, Escherichia coli; conditions: E. coli Top10 producing CTX-M-15; summary of Table 1
From the text: as §1
(§4) MIC determination. MICs of β-lactams were determined by the microdilution method in MH broth according to Clinical and Laboratory Standards Institute (CLSI) recommendations (12). Diazabicyclooctane were used at a fixed concentration of 15 μM (4 μg/ml for avibactam). Clavulanate was tested at 4 μg/ml. IPTG (500 μM) was added to the microdilution plates to induce production of the -lactamase. The precultures were grown in BHI broth containing IPTG (500 μM) and kanamycin (50 μg/ml) for plasmid maintenance. Reported MICs are the medians from five biological repeats obtained in two independent experiments.

AmpCEclo = target: T2, AmpCEclo (Enterobacter cloacae, UniProt P05364); format: biochemical; conditions: AmpCEclo; 20° C., nitrocefin 100 μM, MES pH 6.4
T2 construct: fragments of the β-lactamase genes encoding soluble enzymes, i.e. devoid of the signal peptides; 6xHis tag followed by TEV cleavage site ([…]) (N); made in house; host or cells: E. coli BL21 (DE3)
T2 sequence (P05364 21-381): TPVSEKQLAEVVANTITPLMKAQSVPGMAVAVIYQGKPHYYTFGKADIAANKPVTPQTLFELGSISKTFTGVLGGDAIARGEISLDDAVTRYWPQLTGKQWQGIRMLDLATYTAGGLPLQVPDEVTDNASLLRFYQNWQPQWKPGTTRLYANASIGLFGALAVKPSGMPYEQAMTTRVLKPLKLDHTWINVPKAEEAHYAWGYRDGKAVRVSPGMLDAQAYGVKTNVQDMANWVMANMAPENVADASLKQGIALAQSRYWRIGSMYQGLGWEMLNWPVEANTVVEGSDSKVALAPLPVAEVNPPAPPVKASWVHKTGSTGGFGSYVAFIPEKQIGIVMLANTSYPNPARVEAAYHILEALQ
Experimental: as §2, §3

CTX-M-15 = target: T3, CTX-M-15 (Escherichia coli, UniProt Q9EXV5); assay: Kinetic parameters of β-lactamase carbamoylation/de-carbamoylation (nitrocefin), CTX-M-15; format: biochemical; conditions: for Carbamoylation efficacy of β-lactamases by diazabicyclooctanes / De-carbamoylation rate constant k−2 for β-lactamase-diazabicyclooctane adducts: CTX-M-15, 20° C., nitrocefin 100 μM, MES pH 6.4; for activity against CTX-M-15 (in words): summary of Tables 1 and 2
T3 construct: fragments of the β-lactamase genes encoding soluble enzymes, i.e. devoid of the signal peptides; made in house; host or cells: E. coli BL21 (DE3)
T3 sequence (Q9EXV5 entry or part of it): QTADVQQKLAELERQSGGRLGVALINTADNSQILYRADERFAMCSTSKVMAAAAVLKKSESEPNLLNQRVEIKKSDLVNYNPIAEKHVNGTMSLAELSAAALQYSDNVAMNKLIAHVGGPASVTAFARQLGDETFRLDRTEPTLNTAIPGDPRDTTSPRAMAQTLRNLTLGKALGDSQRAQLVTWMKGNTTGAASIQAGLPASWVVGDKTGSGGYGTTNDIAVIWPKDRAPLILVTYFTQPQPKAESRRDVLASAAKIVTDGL
From the text: as §1, §2, §3

TEM-1 = target: T4, TEM-1 (Escherichia coli, UniProt P62593); assay: Kinetic parameters of β-lactamase carbamoylation/de-carbamoylation (nitrocefin), TEM-1; format: biochemical; conditions: 20° C., nitrocefin 100 μM, MES pH 6.4
T4 construct: fragments of the β-lactamase genes encoding soluble enzymes, i.e. devoid of the signal peptides; made in house; host or cells: E. coli BL21 (DE3)
T4 sequence (P62593 24-286 limits assumed): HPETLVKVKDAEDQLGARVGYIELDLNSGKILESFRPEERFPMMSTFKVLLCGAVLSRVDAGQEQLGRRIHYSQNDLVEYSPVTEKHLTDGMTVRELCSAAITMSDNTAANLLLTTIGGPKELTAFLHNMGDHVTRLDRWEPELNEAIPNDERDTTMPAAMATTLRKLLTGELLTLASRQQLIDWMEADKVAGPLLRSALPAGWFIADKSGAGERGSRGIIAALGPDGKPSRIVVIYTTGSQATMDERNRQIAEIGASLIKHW
From the text: as §1, §2, §3

[2] = tested on: E. coli Top10 producing KPC-2; format: cell-based, Escherichia coli; conditions: summary of Table 1
OXA-48 = target: T5, OXA-48 (Klebsiella pneumoniae, UniProt Q6XEC0); assay: Kinetic parameters of β-lactamase carbamoylation/de-carbamoylation (nitrocefin), OXA-48; format: biochemical; conditions: OXA-48; 20° C., nitrocefin 100 μM, MES pH 6.4; NA = no inhibition at 100 μM
T5 construct: fragments of the β-lactamase genes encoding soluble enzymes, i.e. devoid of the signal peptides; 6xHis tag followed by TEV cleavage site ([…]) (N); made in house; host or cells: E. coli BL21 (DE3)
T5 sequence (Q6XEC0 23-265 limits assumed): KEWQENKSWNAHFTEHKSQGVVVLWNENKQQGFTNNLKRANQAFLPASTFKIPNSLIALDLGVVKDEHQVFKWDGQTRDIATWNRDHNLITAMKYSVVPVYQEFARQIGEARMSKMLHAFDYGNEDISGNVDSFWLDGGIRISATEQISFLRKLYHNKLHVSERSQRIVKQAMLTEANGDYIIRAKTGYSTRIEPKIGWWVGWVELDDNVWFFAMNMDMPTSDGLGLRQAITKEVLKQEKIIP
From the text: as §1, §2, §3

[3] = tested on: E. coli Top10 producing OXA-48; assay: MIC determination by microdilution, E. coli Top10 producing OXA-48; format: cell-based; conditions: Escherichia coli, read-out: MIC of β-lactam, inhibitor None
From the text: as §1, §4

E. coli Top10 = assay: MIC determination by microdilution, E. coli Top10 without β-lactamase (None); format: cell-based; conditions: Escherichia coli; Ertapenem alone; E. coli Top10, β-lactamase None; read-out: MIC of β-lactam, inhibitor None
From the text: as §1, §4

| Structure (SMILES) | Carbamoylation efficacy of β-lactamases by diazabicyclooctanes (KPC-2) | De-carbamoylation rate constant k−2 for β-lactamase-diazabicyclooctane adducts (KPC-2) | reduction in the MICs of β-lactams (in words) [1] | Carbamoylation efficacy of β-lactamases by diazabicyclooctanes (AmpCEclo) | De-carbamoylation rate constant k−2 for β-lactamase-diazabicyclooctane adducts (AmpCEclo) | Carbamoylation efficacy of β-lactamases by diazabicyclooctanes (CTX-M-15) | De-carbamoylation rate constant k−2 for β-lactamase-diazabicyclooctane adducts (CTX-M-15) | Carbamoylation efficacy of β-lactamases by diazabicyclooctanes (TEM-1) | De-carbamoylation rate constant k−2 for β-lactamase-diazabicyclooctane adducts (TEM-1) | reduction in the MICs of β-lactams (in words) [2] | Carbamoylation efficacy of β-lactamases by diazabicyclooctanes (OXA-48) | De-carbamoylation rate constant k−2 for β-lactamase-diazabicyclooctane adducts (OXA-48) | activity against KPC-2 (in words) (KPC-2) | activity against CTX-M-15 (in words) (CTX-M-15) | MIC [3] | MIC (E. coli Top10) |
| --- | --- | --- | --- | --- | --- | --- | --- | --- | --- | --- | --- | --- | --- | --- | --- | --- |
| COCc1cn(C[C@@H]2CC[C@@H]3CN2C(=O)N3OS(=O)(=O)[O-])nn1.[Na+] [Compound 1a.i13] | (1.8 ± 0.2) × 10^1 M^−1 s^−1 | (1.2 ± 0.1) × 10^−3 s−1 | Minor reduction | (1.5 ± 0.5) × 10^1 M^−1 s^−1 | (1.3 ± 0.6) × 10^−3 s−1 | (1.2 ± 0.4) × 10^2 M^−1 s^−1 | (1.3 ± 1.3) × 10^−3 s−1 | (8.3 ± 0.5) × 10^2 M^−1 s^−1 | (1.6 ± 0.5) × 10^−3 s−1 | Minor reduction |  |  |  |  |  |  |
| O=C(O)CCc1cn(C[C@@H]2CC[C@@H]3CN2C(=O)N3OS(=O)(=O)[O-])nn1.[Na+] [Compound 1a.i14] | (7.0 ± 0.8) × 10^1 M^−1 s^−1 | (7.9 ± 1.7) × 10^−4 s−1 | Minor reduction | (9.9 ± 0.9) × 10^1 M^−1 s^−1 | (1.6 ± 0.2) × 10^−3 s−1 | (1.1 ± 0.1) × 10^2 M^−1 s^−1 | (3.9 ± 0.8) × 10^−4 s−1 | (7.2 ± 0.6) × 10^2 M^−1 s^−1 | (8.2 ± 8.9) × 10^−4 s−1 | Minor reduction |  |  |  |  |  |  |
| O=C1N2C[C@@H](CC[C@H]2Cn2cc(-c3ccccc3)nn2)N1OS(=O)(=O)[O-].[Na+] [Compound 1a.i16] | (9.3 ± 0.4) × 10^2 M^−1 s^−1 | (8.8 ± 1.2) × 10^−4 s−1 |  | (2.0 ± 0.0) × 10^2 M^−1 s^−1 | (2.3 ± 0.1) × 10^−3 s−1 | (6.9 ± 0.2) × 10^3 M^−1 s^−1 | (3.3 ± 0.5) × 10^−4 s−1 | (4.7 ± 0.1) × 10^3 M^−1 s^−1 | (4.2 ± 0.6) × 10^−4 s−1 |  | (1.1 ± 0.3) × 10^2 M^−1 s^−1 | (1.7 ± 0.1) × 10^−3 s−1 | displayed activity | displayed activity |  |  |
| O=C1N2C[C@@H](CC[C@H]2Cn2cc(-c3cccnc3)nn2)N1OS(=O)(=O)O [Compound 1a.i] | (5.5 ± 0.1) × 10^2 M^−1 s^−1 | (3.0 ± 0.1) × 10^−3 s−1 |  | (8.5 ± 0.7) × 10^1 M^−1 s^−1 | (2.1 ± 0.5) × 10^−3 s−1 | (1.7 ± 0.4) × 10^3 M^−1 s^−1 | (6.4 ± 0.8) × 10^−4 s−1 | (1.4 ± 0.1) × 10^3 M^−1 s^−1 | (2.1 ± 0.2) × 10^−3 s−1 |  |  |  | displayed activity | displayed activity |  |  |
| C[Si](C)(C)c1cn(C[C@@H]2CC[C@@H]3CN2C(=O)N3OS(=O)(=O)O)nn1 [Compound 2a.i] | (9.7 ± 0.8) × 10^1 M^−1 s^−1 | (2.9 ± 0.2) × 10^−3 s−1 | Minor reduction | (2.4 ± 0.1) × 10^1 M^−1 s^−1 | (1.3 ± 0.9) × 10^−3 s−1 | (4.0 ± 0.1) × 10^2 M^−1 s^−1 | (3.9 ± 0.9) × 10^−4 s−1 | (3.7 ± 0.5) × 10^2 M^−1 s^−1 | (2.9 ± 0.9) × 10^−3 s−1 | Minor reduction |  |  |  |  |  |  |
| C[C@@H](O)[C@H]1C(=O)N2C(C(=O)O)=C(S[C@@H]3CN[C@H](C(=O)Nc4cccc(C(=O)O)c4)C3)[C@H](C)[C@H]12 [Ertapenem] |  |  |  |  |  |  |  |  |  |  |  |  |  |  | 16 µg/mL | < 0.03 µg/mL |

Reference: US20210300926A1, “NEW BETA-LACTAMASE INHIBITORS TARGETING GRAM NEGATIVE BACTERIA” (priority 2017, published 2021)
